# Reference: patent US10328054B2, “Substituted pyrrolidines as mGluR5 antagonists” (Hua Medicine (Shanghai) Ltd., priority 2015, dated 2019)
# Molecular target: recombinant rat mGluR5 (Rattus norvegicus (Rat), UniProt P31424)
# Assay: Functional calcium flux assay (FLIPR)
# Type: cell-based
# Details: HEK293 cells stably expressing recombinant rat mGluR5; inhibition of glutamate-evoked [Ca2+]i increase, 15 min incubation of test compound
# Procedure: For functional assays, HEK293 cells stably expressing recombinant rat mGluR5 were seeded in 384-well plates and dye loaded using Fluo-8. Cells were then washed to remove the un-incorporated dye. Antagonist evaluation was performed following a 15 min incubation of the test compound followed by the addition of submaximal concentration of glutamate. Intracellular calcium ([Ca^2+]i) measurements were performed using a fluorometric imaging plate reader (FLIPR, Molecular Devices). The glutamate-evoked increase in [Ca^2+]i in the presence of the test compounds was compared to the response to glutamate alone (the positive control). Antagonist inhibition curves were fitted with a 4-parameter logistic equation giving IC50 values, and Hill coefficients using an iterative nonlinear curve fitting algorithm.
# The tables below provide IC50 data in this assay. In the activity column, A=IC50>1,000 and <5,000 nM; B=IC50>500 and <1,000 nM and C=IC50<500 nM.
# Chain of recombinant rat mGluR5 (P31424 21-1203): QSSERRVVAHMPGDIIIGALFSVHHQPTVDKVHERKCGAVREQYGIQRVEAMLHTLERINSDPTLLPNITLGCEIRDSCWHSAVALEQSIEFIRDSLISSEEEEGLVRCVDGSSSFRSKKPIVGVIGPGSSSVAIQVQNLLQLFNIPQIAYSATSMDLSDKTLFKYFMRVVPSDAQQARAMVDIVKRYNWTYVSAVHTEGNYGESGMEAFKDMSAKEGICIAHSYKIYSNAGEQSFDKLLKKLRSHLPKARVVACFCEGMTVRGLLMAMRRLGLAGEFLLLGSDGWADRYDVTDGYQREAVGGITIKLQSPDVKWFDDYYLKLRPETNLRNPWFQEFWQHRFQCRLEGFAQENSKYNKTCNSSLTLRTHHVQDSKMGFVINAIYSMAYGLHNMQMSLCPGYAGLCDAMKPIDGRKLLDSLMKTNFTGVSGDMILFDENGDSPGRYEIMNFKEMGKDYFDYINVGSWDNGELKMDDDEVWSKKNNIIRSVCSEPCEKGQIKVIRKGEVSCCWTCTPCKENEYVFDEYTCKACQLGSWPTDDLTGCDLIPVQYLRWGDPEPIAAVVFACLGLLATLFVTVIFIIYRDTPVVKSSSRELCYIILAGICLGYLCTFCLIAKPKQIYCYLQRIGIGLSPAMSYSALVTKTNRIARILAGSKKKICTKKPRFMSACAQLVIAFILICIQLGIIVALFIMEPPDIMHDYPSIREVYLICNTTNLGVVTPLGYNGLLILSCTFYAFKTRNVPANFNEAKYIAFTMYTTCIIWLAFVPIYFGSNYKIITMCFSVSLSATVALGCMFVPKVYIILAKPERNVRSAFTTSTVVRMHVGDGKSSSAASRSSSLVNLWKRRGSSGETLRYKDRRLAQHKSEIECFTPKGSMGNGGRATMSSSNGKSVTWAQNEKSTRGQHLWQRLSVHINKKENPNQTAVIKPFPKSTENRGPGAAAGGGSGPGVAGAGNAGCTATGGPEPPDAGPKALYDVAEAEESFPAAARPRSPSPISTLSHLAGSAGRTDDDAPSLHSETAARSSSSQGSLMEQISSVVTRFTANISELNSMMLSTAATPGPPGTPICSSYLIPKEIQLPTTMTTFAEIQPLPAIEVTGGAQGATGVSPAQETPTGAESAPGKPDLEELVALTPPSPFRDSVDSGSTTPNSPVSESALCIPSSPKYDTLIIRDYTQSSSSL
row,IC50,SMILES
1,< 500 nM,"N#Cc1cc(F)cc(N2CC3CC3(C#Cc3ccccn3)C2)c1 (stereo not drawn) [Example Compound 1, 3-fluoro-S-(1-(pyridin-2-ylethynyl)-3-azabicyclo[3.1.0]hexan-3-yl) benzonitrile]"
2,< 500 nM,"Fc1ccc(N2CC3CC3(C#Cc3ccccn3)C2)cc1 (centres unmarked) [Example Compound 2, 3-(4-fluorophenyl)-1-(pyridin-2-ylethynyl)-3-azabicyclo[3.1.0]hexane]"
3,1000 to 5000 nM,"FC(F)(F)Oc1ccc(N2CC3CC3(C#Cc3ccccn3)C2)cc1 (centres unmarked) [Example Compound 3, 1-(pyridin-2-ylethynyl)-3-(4-(trifluoromethoxy)phenyl)-3-azabicyclo[3.1.0]hexane]"
4,< 500 nM,Fc1cncc(N2CC3CC3(C#Cc3ccccn3)C2)c1 (centres unmarked) [Example Compound 4]
5,< 500 nM,"O=S(=O)(c1ccccc1)N1CC2CC2(C#Cc2ccccn2)C1 (centres unmarked) [Example Compound 5, 3-(phenylsulfonyl)-1-(pyridin-2-ylethynyl)-3-azabicyclo[3.1.0]hexane]"
6,< 500 nM,"Fc1ccc(N2CC3CC3(C#Cc3ccccn3)C2)nc1 (centres unmarked) [Example Compound 6, 3-(5-fluoropyridin-2-yl)-1-(pyridin-2-ylethynyl)-3-azabicyclo[3.1.0]hexane]"
7,< 500 nM,"N#Cc1cc(F)cc(N2CC3CC3(C#Cc3cnccn3)C2)c1 (centres unmarked) [Example Compound 7, 3-fluoro-5-(1-(pyrazin-2-ylethynyl)-3-azabicyclo[3.1.0]hexan-3-yl) benzonitrile]"
8,< 500 nM,"N#Cc1cc(F)cc(N2CC3CC3(C#Cc3ncccn3)C2)c1 (centres unmarked) [Example Compound 8, 3-fluoro-5-(1-(pyrimidin-2-ylethynyl)-3-azabicyclo[3.1.0]hexan-3-yl) benzonitrile]"
9,1000 to 5000 nM,Cc1cccnc1C#CC12CC1CN(c1cc(F)cc(C#N)c1)C2 (centres unmarked) [Example Compound 9]
10,< 500 nM,"C(#CC12CC1CN(c1ccccc1)C2)c1ccccn1 (centres unmarked) [Example Compound 10, 3-phenyl-1-(pyridin-2-ylethynyl)-3-azabicyclo[3.1.0]hexane]"
11,< 500 nM,"N#Cc1cc(F)cc(N2CC3CC3(C#Cc3cccnn3)C2)c1 (centres unmarked) [Example Compound 11, 3-fluoro-5-(1-(pyridazin-3-ylethynyl)-3-azabicyclo[3.1.0]hexan-3-yl)benzonitrile]"
12,< 500 nM,"N#Cc1cc(F)cc(N2CC3CC3(C#Cc3ccnc(Cl)c3)C2)c1 (centres unmarked) [Example Compound 12, 3-(1-((2-chloropyridin-4-yl)ethynyl)-3-azabicyclo[3.1.0]hexan-3-yl)-S-fluorobenzonitrile]"
13,< 500 nM,"Cc1cccc(C#CC23CC2CN(c2cc(F)cc(C#N)c2)C3)n1 (centres unmarked) [Example Compound 13, 3-fluoro-5-(1-((6-methylpyridin-2-yl)ethynyl)-3-azabicyclo[3.1.0]hexan-3-yl) benzonitrile]"
14,< 500 nM,"COc1cccc(C#CC23CC2CN(c2cc(F)cc(C#N)c2)C3)n1 (centres unmarked) [Example Compound 15, 3-fluoro-5-(1-((6-methoxypyridin-2-yl)ethynyl)-3-azabicyclo[3.1.0]hexan-3-yl) benzonitrile]"
15,< 500 nM,"Fc1ccccc1N1CC2CC2(C#Cc2ccccn2)C1 (centres unmarked) [Example Compound 16, 3-(2-fluorophenyl)-1-(pyridin-2-ylethynyl)-3-azabicyclo[3.1.0]hexane]"
16,< 500 nM,"Clc1ccccc1N1CC2CC2(C#Cc2ccccn2)C1 (centres unmarked) [Example Compound 17, 3-(2-chlorophenyl)-1-(pyridin-2-ylethynyl)-3-azabicyclo[3.1.0]hexane]"

row,IC50,SMILES
1,< 500 nM,"Clc1cccc(N2CC3CC3(C#Cc3ccccn3)C2)c1 (centres unmarked) [Example Compound 18, 3-(3-chlorophenyl)-1-(pyridin-2-ylethynyl)-3-azabicyclo[3.1.0]hexane]"
2,500 to 1000 nM,"Clc1ccc(N2CC3CC3(C#Cc3ccccn3)C2)cc1 (centres unmarked) [Example Compound 19, 3-(4-chlorophenyl)-1-(pyridin-2-ylethynyl)-3-azabicyclo[3.1.0]hexane]"
3,< 500 nM,"Fc1cc(Cl)cc(N2CC3CC3(C#Cc3ccccn3)C2)c1 (centres unmarked) [Example Compound 20, 3-(3-chloro-5-fluorophenyl)-1-(pyridin-2-ylethynyl)-3-azabicyclo[3.1.0]hexane]"
4,500 to 1000 nM,"Fc1cc(Cl)ccc1N1CC2CC2(C#Cc2ccccn2)C1 (centres unmarked) [Example Compound 21, 3-(4-chloro-2-fluorophenyl)-1-(pyridin-2-ylethynyl)-3-azabicyclo[3.1.0]hexane]"
5,500 to 1000 nM,"Fc1cc(N2CC3CC3(C#Cc3ccccn3)C2)ccc1Cl (centres unmarked) [Example Compound 22, 3-(4-chloro-3-fluorophenyl)-1-(pyridin-2-ylethynyl)-3-azabicyclo[3.1.0]hexane]"
6,< 500 nM,"N#Cc1ccnc(N2CC3CC3(C#Cc3ccccn3)C2)c1 (centres unmarked) [Example Compound 23, 2-(1-(pyridin-2-ylethynyl)-3-azabicyclo[3.1.0]hexan-3-yl)isonicotinonitrile]"
7,1000 to 5000 nM,"C(#CC12CC1CN(c1ccc3[nH]ccc3n1)C2)c1ccccn1 (centres unmarked) [Example Compound 24, 5-(1-(pyridin-2-ylethynyl)-3-azabicyclo[3.1.0]hexan-3-yl)-1H-pyrrolo[3,2-b]pyridine]"
8,1000 to 5000 nM,"C(#CC12CC1CN(c1ccc3[nH]cnc3c1)C2)c1ccccn1 (centres unmarked) [Example Compound 25, 5-(1-(pyridin-2-ylethynyl)-3-azabicyclo[3.1.0]hexan-3-yl)-1H-benzo[d]imidazole]"
9,< 500 nM,"O=C(c1cccc(Cl)c1)N1CC2CC2(C#Cc2ccccn2)C1 (centres unmarked) [Example Compound 26, (3-chlorophenyl)(1-(pyridin-2-ylethynyl)-3-azabicyclo[3.1.0]hexan-3-yl)methanone]"
10,< 500 nM,"O=C(c1ccccn1)N1CC2CC2(C#Cc2ccccn2)C1 (centres unmarked) [Example Compound 27, pyridin-2-yl(1-(pyridin-2-ylethynyl)-3-azabicyclo[3.1.0]hexan-3-yl)methanone]"
11,< 500 nM,"O=C(c1ccccc1)N1CC2CC2(C#Cc2ccccn2)C1 (centres unmarked) [Example Compound 28, phenyl(1-(pyridin-2-ylethynyl) 3-azabicyclo[3.1.0]hexan-3-yl)methanone]"
12,< 500 nM,"O=C(Cc1ccccc1)N1CC2CC2(C#Cc2ccccn2)C1 (centres unmarked) [Example Compound 29, 2-phenyl-1-(1-(pyridin-2-ylethynyl)-3-azabicyclo[3.1.0]hexan-3-yl)ethanone]"
13,< 500 nM,"O=C(c1ccccc1Cl)N1CC2CC2(C#Cc2ccccn2)C1 (centres unmarked) [Example Compound 30, (2-chlorophenyl) (1-(pyridin-2-ylethynyl)-3-azabicyclo[3.1.0]hexan-3-yl)methanone]"
14,< 500 nM,"CCCCC(=O)N1CC2CC2(C#Cc2ccccn2)C1 (centres unmarked) [Example Compound 31, 1-(1-(pyridin-2-ylethynyl)-3-azabicyclo[3.1.0]hexan-3-yl)pentan-1-one]"
15,< 500 nM,"O=C(CCc1ccccc1)N1CC2CC2(C#Cc2ccccn2)C1 (centres unmarked) [Example Compound 32, 3-phenyl-1-(1-(pyridin-2-ylethynyl)-3-azabicyclo[3.1.0]hexan-3-yl)propan-1-one]"
16,< 500 nM,"O=C(c1ccc(Cl)cc1)N1CC2CC2(C#Cc2ccccn2)C1 (centres unmarked) [Example Compound 33, (4-chlorophenyl)(1-(pyridin-2-ylethynyl)-3-azabicyclo[3.1.0]hexan-3-yl)methanone]"
